Experimental findings from ChEMBL document CHEMBL1862790, “Optimisation of fenarimol series for the treatment of Chagas disease” are described below.

Several values for one entry are separate records, joined by “and”; a condition that tells them apart may be missing. Equal entries are not always repeated.

In series [1] the test system is Trypanosoma cruzi. The series is described as follows: microbe, parasite or virus in culture. The series is classed as functional, organism-based, Tulahuen LacZ, Clone C4.
Series [2] is described as follows: DNDI: Cytotoxicity against L-6 rat myoblasts from skeletal muscle cells. As to conditions: L6 rat skeletal muscle myoblast cells.
Series [3] relates to Trypanosoma cruzi. Put plainly: microbe, parasite or virus in culture. It is filed as functional, Tulahuen LacZ, Clone C4.
Where [4] appears, read: Trypanosoma cruzi, Tulahuen LacZ, Clone C4.

Take `OC(c1cncnc1)(c1ccccc1Cl)c1ccccc1Cl`: the IC50 with Trypanosoma cruzi [1] (setting [4]) was 1060 nM; in series [2] (IC50), over 100000 nM.
As for `OC(c1ccc(Cl)cc1)(c1cccnc1)c1ccc(Br)cc1F` (centres undefined), in the series on Trypanosoma cruzi [1] (setting [4]), the IC50 stood at 27 nM. The compound further had an IC90 with Trypanosoma cruzi [3] (setting [4]) of 120 nM.
Turning to `OC(c1ccc(Cl)cc1)(c1cccnc1)c1ccc(Cl)cc1F` (centres undefined), the IC50 was 19 nM with Trypanosoma cruzi [1], 14 nM in the series on Trypanosoma cruzi [1] (setting [4]) and over 100000 nM in series [2]. The IC90 in the series with Trypanosoma cruzi [3] was 32 nM; in the series with Trypanosoma cruzi [3] (setting [4]), 31 nM.
Regarding `[O-][n+]1cncc(C(O)(c2ccc(Cl)cc2)c2ccccc2Cl)c1` (centres undefined), the IC50 was 14500 nM with Trypanosoma cruzi [1] (setting [4]) and over 100000 nM in series [2] (IC50).
In the case of `COC(c1ccc(Cl)cc1)(c1cccnc1)c1ccccc1Cl` (centres undefined), the IC50 in the series on Trypanosoma cruzi [1] (setting [4]) was 90 nM. This compound also registered an IC90 in the series on Trypanosoma cruzi [3] (setting [4]) of 10000 nM.
`CC1(C)CC(=O)C(C(=O)c2ccc(Cl)cc2Cl)C(=O)C1`: the IC50 came out at 58500 nM with Trypanosoma cruzi [1] (setting [4]) and 76500 nM in series [2] (IC50).
For `CON=C(Cc1ccc(OC)cc1)c1ccc(OC)c(OC)c1OC` the same measures were over 1000 nM and 92300 nM.
`CC(=O)N1CCN(C(c2ccc(Cl)cc2)c2cccnc2)CC1` (centres undefined): the results for the IC50 (in the series with Trypanosoma cruzi [1]; in series [2] (IC50)) were 490 nM [middle of 4 runs] and over 100000 nM, respectively. For the same compound, the IC90 with Trypanosoma cruzi [3] is 820 nM and 930 nM and 520 nM; in the series on Trypanosoma cruzi [3] (setting [4]), 960 nM.
Consider `CC(C)c1ccc(C(O)(c2ccc(C(F)(F)F)cc2)c2cccnc2)cc1` (centres undefined), for which 2 nM corresponded to half-maximal inhibition with Trypanosoma cruzi [1] (setting [4]) (IC50). This compound returned an IC90 in the series on Trypanosoma cruzi [3] (setting [4]) of 7 nM.
In the case of `OC(c1ccc(Cl)cc1)(c1cccnc1)c1ccc(Cl)s1` (centres undefined), the values for the IC50 (with Trypanosoma cruzi [1] (setting [4]); in series [2] (IC50)) were 77 nM and 50000 nM, respectively.
For the compound `CC(C)(C)NC(=O)N1CCC(NC(c2ccc(C(F)(F)F)cc2)c2cccnc2)CC1` (centres undefined), the IC50 was 61 nM in the series with Trypanosoma cruzi [1], 48 nM in the series with Trypanosoma cruzi [1] (setting [4]) and over 100000 nM in series [2] (IC50). Besides, the results for the concentration for an effect of 90% (IC90) with Trypanosoma cruzi [3] and in the series with Trypanosoma cruzi [3] (setting [4]) were 207 nM and 402 nM, respectively.
On to `CON=C(Cc1ccccc1)c1ccc(OC)cc1`, for which the IC50 is over 1000 nM with Trypanosoma cruzi [1] (setting [4]) and over 100000 nM in series [2] (IC50).
For `CON=C(Cc1ccccc1C(=O)O)c1ccc(Cl)cc1` the same measures were over 1000 nM and over 100000 nM.
In the case of `CC(C)C(=O)N1CCN(C(c2ccc(Cl)cc2)c2cncnc2)CC1` (centres undefined), the midpoint of inhibition in the series with Trypanosoma cruzi [1], the IC50, lay at 680 nM. The IC90 in the series on Trypanosoma cruzi [3] was over 1000 nM.
In the series on Trypanosoma cruzi [1], `CS(=O)(=O)N1CCC(CNC(c2ccc(C(F)(F)F)cc2)c2cnccn2)CC1` (centres undefined) had an IC50 of 360 nM. Also, the 90% effect level with Trypanosoma cruzi [3] (IC90) was put at 910 nM.
As to `O=C(C1CC1)N1CCN(C(c2cncnc2)c2ccc(Cl)cc2F)CC1` (centres undefined), the IC50 is 171 nM in the series with Trypanosoma cruzi [1], 180 nM with Trypanosoma cruzi [1] (setting [4]) and over 100000 nM in series [2] (IC50). The IC90 in the series with Trypanosoma cruzi [3] was 306 nM and 614 nM.
As for `CS(=O)(=O)N1CCN(C(c2cccnc2)c2ccc(Cl)cc2F)CC1` (centres undefined) [listing 1 of 2 here], the IC50 was 35 nM and 46 nM in the series with Trypanosoma cruzi [1]; over 100000 nM in series [2] (IC50). In addition, the IC90 in the series on Trypanosoma cruzi [3] is 160 nM and 110 nM.
Take `NC(=O)c1cccc(C(O)(c2ccc(Cl)cc2)c2cccnc2)c1` (centres undefined): the IC50 is 30 nM and 78 nM in the series with Trypanosoma cruzi [1]; over 100000 nM in series [2] (IC50). Moreover, the IC90 in the series with Trypanosoma cruzi [3] was 100 nM and 320 nM.
Compound `O=C(C1CC1)N1CCC(NC(c2ccc(C(F)(F)F)cc2)c2cnccn2)CC1` (centres undefined) displayed an IC50 in the series on Trypanosoma cruzi [1] of 640 nM. Further, in the series on Trypanosoma cruzi [3], the concentration for an effect of 90% (IC90) is over 1000 nM.
In the series with Trypanosoma cruzi [1] (setting [4]), `CC(C)Oc1ccccc1C(O)(c1ccc(Cl)cc1)c1cccnc1` (centres undefined) gave an IC50 of 446 nM. This compound also came in with an IC90 in the series on Trypanosoma cruzi [3] (setting [4]) of 820 nM.
With `CON=C(c1ccc(Cl)cc1)C1(c2ccccc2C(=O)O)CC1`, the values for the IC50 (in the series with Trypanosoma cruzi [1] (setting [4]); in series [2] (IC50)) were over 1000 nM and over 100000 nM, respectively.
For `O=C(NC1CCN(C(c2ccc(C(F)(F)F)cc2)c2cnccn2)CC1)C1CC1` (centres undefined), the IC50 in the series with Trypanosoma cruzi [1] is 575 nM; in the series with Trypanosoma cruzi [1] (setting [4]) it was 660 nM; in series [2] (IC50), over 100000 nM. Moreover, the results for the IC90 with Trypanosoma cruzi [3] and in the series on Trypanosoma cruzi [3] (setting [4]) were 1290 nM and over 1000 nM, respectively.
Take `OC(c1cccnc1)(c1cccc(F)c1)c1ccccc1Cl` (centres undefined): the IC50 in the series with Trypanosoma cruzi [1] was 752 nM; in the series with Trypanosoma cruzi [1] (setting [4]), 558 nM; in series [2] it was over 100000 nM. The compound also yielded an IC90 in the series with Trypanosoma cruzi [3] (setting [4]) of over 1000 nM.
In the case of `OC(c1ccc(Cl)cc1)(c1cccnc1)c1cnc(Cl)nc1` (centres undefined), the IC50 in the series on Trypanosoma cruzi [1] was 163 nM and 480 nM; in series [2] (IC50), over 100000 nM. Besides, the IC90 in the series with Trypanosoma cruzi [3] is 339 nM and 850 nM.
Take `OC(c1ccc(Cl)cc1)(c1cccnc1)c1ccccc1F` (centres undefined): the IC50 is 34.8 nM in the series on Trypanosoma cruzi [1], 54 nM with Trypanosoma cruzi [1] (setting [4]) and over 100000 nM in series [2]. For the same compound, the IC90 with Trypanosoma cruzi [3] was found to be 179 nM; with Trypanosoma cruzi [3] (setting [4]), 152 nM.
In the case of `O=[N+]([O-])c1ccc(O/N=C/c2cc(Br)c(O)c(Br)c2)c([N+](=O)[O-])c1`, the results for the IC50 (with Trypanosoma cruzi [1] (setting [4]); in series [2]) were 23900 nM and 83600 nM, respectively.
In the case of `OC(Cc1ccc(Cl)nc1)c1ccc(Cl)cc1` (centres undefined), the IC50 is over 1000 nM with Trypanosoma cruzi [1] (setting [4]) and over 100000 nM in series [2] (IC50).
Take `CON=C(Cc1ccccc1)c1ccc(F)cc1`: in the series with Trypanosoma cruzi [1] (setting [4]), the IC50 was over 1000 nM.
Take `CS(=O)(=O)N1CCN(C(c2cccnc2)c2ccc(Cl)cc2F)CC1` (centres undefined) [listing 2 of 2 here]: the IC50 in the series on Trypanosoma cruzi [1] is 85 nM and 45.3 nM. For the same compound, the IC90 in the series on Trypanosoma cruzi [3] was 380 nM and 167 nM.
In the case of `N#Cc1ccc(C(O)(c2ccc(C(F)(F)F)cc2)c2cccnc2)cc1` (centres undefined), the IC50 in the series with Trypanosoma cruzi [1] was determined as 18 nM; with Trypanosoma cruzi [1] (setting [4]), 12 nM; in series [2] (IC50) it was 63300 nM. Moreover, the IC90 in the series with Trypanosoma cruzi [3] came to 33 nM; with Trypanosoma cruzi [3] (setting [4]), 32 nM.
Compound `O=C(C1CC1)N1CCC(NC(c2ccc(Cl)cc2)c2cccnc2)CC1` (centres undefined) showed an IC50 with Trypanosoma cruzi [1] of 110 nM.
Regarding `Cc1ncsc1C(=O)N1CCC(NC(c2ccc(C(F)(F)F)cc2)c2cccnc2)CC1` (centres undefined), the IC50 was 58 nM in the series with Trypanosoma cruzi [1], 67 nM in the series with Trypanosoma cruzi [1] (setting [4]) and over 100000 nM in series [2] (IC50). Also, the IC90 with Trypanosoma cruzi [3] came to 180 nM; in the series on Trypanosoma cruzi [3] (setting [4]), 218 nM.
For `CS(=O)(=O)N1CCN(C(c2cncnc2)c2ccc(Cl)cc2F)CC1` (centres undefined) the same measures were 390 nM, 444 nM, over 100000 nM, 850 nM and 724 nM.
On to `N#Cc1cccc(OC2CCN(C(c3ccc(C(F)(F)F)cc3)c3cccnc3)CC2)c1` (centres undefined), for which the IC50 was 8.25 nM with Trypanosoma cruzi [1] and 7.5 nM in the series with Trypanosoma cruzi [1] (setting [4]). The IC90 in the series on Trypanosoma cruzi [3] is 12.5 nM and 29 nM.
The compound `OC(c1ccc(Cl)cc1)(c1cccnc1)c1cccc(F)c1` (centres undefined) showed an IC50 in the series on Trypanosoma cruzi [1] (setting [4]) of 100 nM. Further, in the series on Trypanosoma cruzi [3] (setting [4]), it took 330 nM to reach the 90% level (IC90).
Turning to `OC(c1ccccc1)(c1ccc(Cl)cc1)c1cncnc1` (centres undefined), the IC50 is 462 nM with Trypanosoma cruzi [1] (setting [4]) and over 100000 nM in series [2] (IC50).
For `OC(c1ccc(F)cc1)(c1ccc(Cl)cc1)c1cncnc1` (centres undefined) the same measures were 641 nM and over 100000 nM.
In turn, `Clc1ccc(C(c2ccc(Cl)cc2)c2cccnc2)cc1` registered an IC50 with Trypanosoma cruzi [1] (setting [4]) of 80 nM. The compound also yielded an IC90 with Trypanosoma cruzi [3] (setting [4]) of 1600 nM.
As to `C#CCOC(=O)[C@@H](C)Oc1ccc(Oc2ncc(Cl)cc2F)cc1` [CLODINAFOP PROPARGYL], the IC50 with Trypanosoma cruzi [1] (setting [4]) was 67500 nM; in series [2] (IC50), over 100000 nM.
In the series on Trypanosoma cruzi [1] (setting [4]), `OC(c1ccc(Cl)cc1)(c1cncnc1)c1ccccc1Cl` (centres undefined) [FENARIMOL] displayed an IC50 of 250 nM. The compound also returned an IC90 in the series with Trypanosoma cruzi [3] (setting [4]) of 560 nM.
Take `CC(Oc1ccc(Oc2nc3ccc(Cl)cc3o2)cc1)C(=O)O` (centres undefined) [FENOXAPROP]: the IC50 (with Trypanosoma cruzi [1] (setting [4]); in series [2]) was over 100000 nM throughout.
For the compound `CNC1=C(c2cccc(C(F)(F)F)c2)C(=O)C(c2ccccc2)O1` (centres undefined) [FLURTAMONE], the IC50 with Trypanosoma cruzi [1] (setting [4]) was found to be 55500 nM; in series [2], 82800 nM.
For `CON(C)C(=O)Nc1ccc(Br)cc1` [METOBROMURON] the same measures were 71800 nM and over 100000 nM.
For `CC(Oc1ccc(Cl)cc1Cl)C(=O)O` (stereo not drawn) [RAC-DICHLORPROP] the same measures were 74000 nM and over 100000 nM.
For `Oc1cc(Cl)ccc1Oc1ccc(Cl)cc1Cl` [TRICLOSAN] the same measures were 53000 nM and 82200 nM.
